Source: patent US6753337B2, “Alkynyl containing hydroxamic acid compounds as matrix metalloproteinase/tace inhibitors” (Wyeth Holdings Corporation, priority 1999, dated 2004)
Where a name gives a salt, the structure may show the parent alone.

Experiments:
[1] = target: TNF-α converting enzyme (TACE) (Homo sapiens, UniProt P78536); test: Test procedure for measuring TACE inhibition (fluorescent peptidyl substrate); assay type: biochemical
How it was run: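 TACE (1 μg/mL final) preincubated 10 min at room temperature with 1 μM compound in 10 mM Tris pH 7.4, 10% glycerol, DMSO <1%. Treated rates tested against control by Dunnett's test (p<0.05).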

[2] = test system: THP-1 cells; test: Human monocytic THP-1 cell differentiation assay for soluble proteins (THP-1 soluble protein assay); assay type: cell-based; conditions: LPS-stimulated THP-1 cells, soluble protein not given
Description: Mitogenic stimulation of THP-1 cells cause differentiation into macrophage like cells with concomitant secretion of tumor necrosis factor (TNF-α) and TNF receptor (TNF-R p75/80 and TNF-R p55160) and Interleukin-8 (IL-8), among other proteins. In addition, non-stimulated THP-1 cells shed both the p75/80 and the p55/60 receptors over time. The release of membrane bound TNF-α and possibly TNF-R p75/80 and TNF-R p55/60, but not IL-8, is mediated by an enzyme called TNF-α converting enzyme or TACE.
THP-1 cells (from ATCC) are a human monocytic cell line which were obtained from the peripheral blood of a person with acute monocytic leukemia. They can be grown in culture and differentiated into macrophage like cells by stimulation with mitogens.
Each vial of cells are cultured for about two weeks prior to being used for an assay and then are used for only 4 to 6 weeks to screen compounds.
Cell exposure to DMSO was limited to 0.1% final concentration. […] Compounds can be evaluated for their effect on basal (non-stimulated) shedding of the receptors by replacing the LPS with […] of THP-1 media.
Plates are placed into an incubator set at 5% CO2 and at 37° C. After 4 hours of incubation, […] of tissue culture supernatant (TCS) is removed for use in an TNF-α ELISA. Following 24 hours of incubation, […] of TCS is removed and used for analysis in TNF-R p75/80, TNF-R p55160 and IL-8 ELISAs.
In addition, at the 24 hours timepoint, and the cells for each treatment group are collected by resuspension in 500 μl/well of THP-1 media and transferred into a FACS tube. […] The samples are run on a Becton Dickinson FaxCaliber FLOW cytometry machine and the amount of dye taken up by each cell is measured in the high red wavelength (FL3). Only cells with compromised membranes (dead or dying) can take up PI. The percent of live cells is calculated by the number of cells not stained with PI, divided by the total number of cells in the sample. The viability values calculated for the drug treated groups were compared to the viability value calculated for the vehicle treated mitogen stimulated group (“vehicle positive control”) to determine the “percent change from control”. This “percent change from control” value is an indicator of drug toxicity.
The quantity of soluble TNF-α, TNF-R p75/80 and TNF-R p55160 and IL-8 in the TCS of the THP-1 cell cultures are obtained with commercially available ELISAs from R&D Systems, by extrapolation from a standard curve generated with kit standards. The number of cells that either take up or exclude PI are measured by the FLOW cytometry machine and visualized by histograms using commercially available Cytologic software for each treatment group including all controls.
Biological variability in the magnitude of the response of THP-1 cell cultures requires that experiments be compared on the basis of percent change from “vehicle positive control” for each drug concentration. Percent change in each soluble protein evaluated from the “vehicle positive control” was calculated for each compound concentration with the following formula: [formula]
For the soluble protein (TNF-α, p75/80, p55/60, IL-8) studies under stimulated conditions, the mean pg/ml of duplicate wells were determined and the results expressed as percent change from “vehicle positive control”. For the soluble protein (p75/80 and p55/60 receptors) studies under non-stimulated conditions, the mean pg/ml of duplicate wells were determined and the results expressed as percent change from “vehicle positive control” utilizing the following formula: [formula]
IC50 values for each compound are calculated by non-linear regression analysis using customized software utilizing the JUMP statistical package.
For the cell viability studies, the viabilities (PI exclusion) of pooled duplicate wells were determined and the results expressed as % change from “vehicle positive control”.

[3] = target: MMP-13 (Homo sapiens, UniProt P45452); test: MMP-13 inhibition (thiopeptide or fluorescent peptide substrate); assay type: biochemical; conditions: read-out: MMP13 IC50
How it was run: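 Human recombinant MMP-1, MMP-9 or MMP-13 was run either with a thiopeptide substrate plus DTNB (1 mM working dilution) in 50 mM HEPES pH 7.5, 5 mM CaCl2 (colorimetric), or with a quenched fluorescent peptide in HCBC buffer pH 7.0. Reactions started with substrate; the rate slope was compared with control by Dunnett's test.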

Sequence of TNF-α converting enzyme (TACE) (P78536 215-824): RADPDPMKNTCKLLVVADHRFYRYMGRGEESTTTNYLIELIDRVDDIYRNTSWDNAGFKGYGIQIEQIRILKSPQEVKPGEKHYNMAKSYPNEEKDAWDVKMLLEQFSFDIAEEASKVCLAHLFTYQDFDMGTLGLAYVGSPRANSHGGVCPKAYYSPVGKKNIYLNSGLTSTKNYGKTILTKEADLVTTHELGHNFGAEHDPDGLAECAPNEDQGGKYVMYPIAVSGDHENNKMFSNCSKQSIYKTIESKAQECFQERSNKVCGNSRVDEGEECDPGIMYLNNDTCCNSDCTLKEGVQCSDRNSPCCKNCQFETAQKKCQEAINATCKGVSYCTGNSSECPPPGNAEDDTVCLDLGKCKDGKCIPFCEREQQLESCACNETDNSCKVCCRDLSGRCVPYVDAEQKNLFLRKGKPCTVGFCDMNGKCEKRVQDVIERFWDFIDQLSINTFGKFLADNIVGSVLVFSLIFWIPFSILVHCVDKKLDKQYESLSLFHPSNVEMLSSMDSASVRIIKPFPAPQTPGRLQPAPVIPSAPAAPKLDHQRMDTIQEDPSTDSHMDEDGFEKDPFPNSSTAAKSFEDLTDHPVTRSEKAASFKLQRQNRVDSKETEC

Row | Structure (SMILES) | IC50 [1] [nM] | IC50 [3] [nM] | inhibition at 1 µM [1] [%] | inhibition at 3 µM [2] [%]
1 | CC#CCOc1ccc(S(=O)(=O)C2(C(=O)NO)CCN(C(=O)c3cccnc3)CC2)cc1 [Example 70, 4-(4-But-2-ynyloxybenzenesulfonyl)-N-hydroxy-1-(3-pyridinylcarbonyl)-4-piperidinecarboxamide] | 87 | 113 | – | 62
2 | CC#CCOc1ccc(S(=O)(=O)C2(C(=O)NO)CCN(C(C)C)CC2)cc1 [Example 22, 4-{[4-(2-butynyloxy)phenyl]sulfonyl}-N-hydroxy-1-isopropyl-4-piperidine carboxamide] | – | 1080 | 48.4 | 5
3 | CC#CCOc1ccc([S+]([O-])C2(C(=O)NO)CCN(Cc3ccc(Br)cc3)CC2)cc1 (stereo not drawn) [Example 82, 1-(4-Bromo-benzyl)-4-(4-But-2-ynyloxy-benzenesulfinyl)-piperidine-4-carboxylic acid hydroxamide hydrochloride] | 135 | 62 | – | 16
4 | CC#CCOc1ccc(S(=O)(=O)C2(C(=O)NO)CCN(S(=O)(=O)c3ccc(OC)cc3)CC2)cc1 [Example 72, 4-(4-but-2-ynyloxybenzenesulfonyl)-N-hydroxy-1-[(4-methoxyphenyl)-sulfonyl]-4-piperidinecarboxamide] | 221 | 369 | – | 56
5 | C#CCOc1ccc(S(=O)(=O)C2(C(=O)NO)CCN(Cc3ccc(OC)cc3)CC2)cc1 [Example 28, 1-(4-Methoxy-benzyl)-4-(4-prop-2-ynyloxy-benzenesulfonyl)-piperidine-4-carboxylic acid hydroxyamide] | 150 | 5.3 | – | 13
6 | CC#CCOc1ccc(S(=O)(=O)CC2(C(=O)NO)CCN(C(=O)C(C)(CO)CO)CC2)cc1 [Example 43, 4-({[4-(2-Butynyloxy)phenyl]sulfonyl}methyl)-N-hydroxy-1-[3-hydroxy-2-(hydroxymethyl)-2-methylpropanoyl]-4-piperidinecarboxamide] | 13 | 1640 | – | 66
7 | CC#CCOc1ccc([S+]([O-])CC2(C(=O)NO)CCN(C(=O)OC(C)(C)C)CC2)cc1 (stereo not drawn) [Example 32, tert-Butyl-4-({[4-(2-butynyloxy)phenyl]sulfinyl}methyl)-4-[(hydroxyamino)-carbonyl]-1-piperidinecarboxylate] | 100 | 2750 | – | 0
8 | CC#CCOc1ccc(S(=O)(=O)C2(C(=O)NO)CCN(C(=O)C(C)(CO)CO)CC2)cc1 [Example 74, 4-(4-But-2-ynyloxybenzenesulfonyl)-N-hydroxy-1-[3-hydroxy-2-(hydroxymethyl)-2-methylpropanoyl]-4-piperidinecarboxamide] | 132 | 287 | – | 39
9 | C#CCOc1ccc(S(=O)(=O)C2(C(=O)NO)CCN(Cc3ccc(Br)cc3)CC2)cc1 [Example 11, 1-(4-Bromo-benzyl)-4-(4-prop-2-ynyloxy-benzenesulfonyl)-piperdine-4-carboxylic acid hydroxyamide] | 98 | 3.1 | – | 7
10 | CC#CCOc1ccc(S(=O)(=O)CC2(C(=O)NO)CCN(C(=O)OCc3ccccc3)CC2)cc1 [Example 40, Benzyl 4-({[4-(2-butynyloxy)phenyl]sulfonyl}methyl)-4-[(hydroxyamino)-carbonyl]-1-piperidinecarboxylate] | 63 | 36 | – | 41
11 | CC#CCOc1ccc(S(=O)(=O)C2(C(=O)NO)CCOCC2)cc1 [Example 20, 4-{[4-(2-butynyloxy)phenyl]sulfonyl}-N-hydroxytetrahydro-2H-pyran-4-carboxamide] | 30.1 | 121 | – | 47
12 | CC#CCOc1ccc([S+]([O-])C2(C(=O)NO)CCN(C(=O)OC(C)(C)C)CC2)cc1 (stereo not drawn) [Example 80, tert-butyl 4-{[4-(but-2-ynyloxy)phenyl]sulfinyl}-4-[(hydroxyamino)carbonyl]piperidine-1-carboxalate] | 90 | 40 | – | -7
13 | CC#CCOc1ccc(S(=O)(=O)C2(C(=O)NO)CCN(Cc3ccc(Br)cc3)CC2)cc1 [Example 1, 1-(4-Bromo-benzyl)-4-(4-but-2-ynyxoy-benzenesulfonyl)-piperdine-4-carboxylic acid hydroxyamide] | 65 | 155 | – | 46
14 | CC#CCOc1ccc([S+]([O-])C2(C(=O)NO)CCNCC2)cc1 (stereo not drawn) [Example 81, 4-(4-(But-2-ynyloxy-benzenesulfinyl)-piperidine-4-carboxylic acid hydroxamide hydrochloride] | 277 | 593 | – | 25
15 | CC#CCOc1ccc(S(=O)(=O)CC2(C(=O)NO)CCN(C(C)=O)CC2)cc1 [Example 36, 1-Acetyl-4-[[[4-(2-butynyloxy)phenyl]sulfonyl]methyl]-N-hydroxy-4-piperidinecarboxamide] | 4.8 | 380 | – | 58

Further lines, with some results ahead:

Row | IC50 [1] [nM] | IC50 [3] [nM] | inhibition at 1 µM [1] [%] | Structure (SMILES) | inhibition at 3 µM [2] [%]
16 | 114 | 349 | – | CC#CCOc1ccc(S(=O)(=O)C2(C(=O)NO)CCN(Cc3ccc(C(=O)OC)cc3)CC2)cc1 [Example 77, hydrochloride] | 52
17 | 188 | 180 | – | CCC#CCOc1ccc(S(=O)(=O)C2(C(=O)NO)CCN(Cc3ccc(Br)cc3)CC2)cc1 [Example 5, 1-(4-Bromo-benzyl)-4-(4-pent-2-ynyloxy-benzenesulfonyl)-piperdine-4-carboxylic acid hydroxyamide] | 30
18 | 166 | 35.2 | – | CC#CCOc1ccc(S(=O)(=O)C2(C(=O)NO)CCN(Cc3ccc(C)cc3)CC2)cc1 [Example 9, 4-(4-But-2-ynyloxy-benzenesulfonyl)-1-(4-methyl-benzyl)-piperidine-4-carboxylic acid hydroxamide] | 12
19 | 55 | 90 | – | CC#CCOc1ccc(S(=O)(=O)C2(C(=O)NO)CCN(Cc3ccc(Cl)cc3)CC2)cc1 [Example 3, 4-(4-But-2-ynyloxy-benzenesulfonyl)-1-(4-chloro-benzyl)-piperdine-4-carboxylic acid hydroxyamide] | 34
20 | 70 | 50.6 | – | CC#CCOc1ccc(S(=O)(=O)C2(C(=O)NO)CCN(Cc3ccc(C(N)=O)cc3)CC2)cc1 [Example 79, 1-[4-(Aminocarbonyl)benzyl]-4-{[4-(2-butynyloxy)phenyl]sulfonyl}-N-hydroxy-4-piperidinecarboxamide hydrochloride] | 83
21 | 695 | 1180 | – | CC#CCOc1ccc(S(=O)(=O)C2(C(=O)NO)CCCN(Cc3ccc(Cl)cc3)C2)cc1 (stereo not drawn) [Example 25, 3-{[4-(2-butynyloxy)phenyl]sulfonyl}-1-(4-chlorobenzyl)-N-hydroxy-3-piperidinecarboxamide] | 3
22 | 64.5 | 73.7 | – | CC#CCOc1ccc(S(=O)(=O)C2(C(=O)NO)CCN(Cc3ccc(C(=O)O)cc3)CC2)cc1 [Example 78, 4-({4-{[4-(2-butynyloxy)phenyl]sulfonyl}-4-[(hydroxyamino)-carbonyl]-1-piperidinyl}methyl)benzoic acid hydrochloride] | 64
